Assay results from publication PMC9465178, “Cinnamaldehyde derivatives act as antimicrobial agents against Acinetobacter baumannii through the inhibition of cell division” (Frontiers in Microbiology, 2022).
In brackets after ≈: the same amount, converted by molar mass.

Legend:
A. baumannii ATCC 19606 = assay: Cell division phenotype by light microscopy; type: cell-based, Acinetobacter baumannii; conditions: LXC compounds at 2 × MIC
Procedure: Morphological changes of bacteria when exposed to the compounds were assessed microscopically using the assay as previously described ([Chai et al., 2020]). Eppendorf® tubes were set up with A. baumannii ATCC 19606 as described for the time-kill assays. At time 0, 1, 3, 6, and 18 h, an aliquot of the bacterial suspension (1 μL) was transferred onto a glass slide and viewed under a light microscope (Olympus CX33®) at 100 × magnification. Representative images were captured using JENOPTIK GRYPHAX® imaging.
A 1 μL aliquot was taken out at varying timepoints (0, 1, 3, 6, and 18 h) and imaged by light microscopy. The images for 6 h are depicted here. […] The white arrow indicates “grooving” site, an indication of where separation of daughter cells should take place. Scale bar is 50 μm.
Four of the compounds (LXC 31, 33, 35 and 41) were tested at 1× and 2× their minimum inhibitory concentration (MIC) whereas LXC 36 and 43 were tested at 2× and 4× MIC. The phenotypic changes in A. baumannii morphology were analysed under a light microscope (100× magnification) at time 0, 1, 3, 6 and 18 h. Scale bar is 50 µm.

E. coli FtsZ = conditions: FtsZ from E. coli, 120 μg/mL; ref Li et al., 2015a; cited from earlier work
Caenorhabditis elegans = assay: Nematode toxicity (survival); type: in vivo; conditions: 1 × and 2 × MIC, up to 72 h, 25°C
Procedure: Protocols for growing, harvesting, and synchronizing C. elegans have been previously described ([Porta-de-la-Riva et al., 2012]; [Chai et al., 2020]) and were performed with the following modifications. The nematodes were treated with LXC compounds 1 to 6 at 1 × and 2 × MIC with at least 3 replicates using a final DMSO concentration of 2% (v/v). The plate was incubated at 25°C and the number of live vs dead nematodes was enumerated every 24 h for 72 h. […] The percentage of living nematodes at each time point across 72 h was calculated to give the percentage of survival.
FIGURE 10 The LXC compounds (apart from compound 5) were not cytotoxic to C. elegans nematodes. (A–F) C. elegans nematodes were cultured on nematode growth media agar plate and harvested in optimized growth media, with E. coli as its primary source of nutrient. […] The nematodes were counted under a light microscope at 400× magnification and the live nematodes at 72 h was indicated as a fraction of the starting number of nematodes (percentage survival). The results are presented in mean percentage of survival ± SEM. Statistical analysis was performed using two-way ANOVA and the asterisks (*) represent statistical significance: LXC 41 (5) at time 72 h (*p < 0.05).

[1] = system: Pseudomonas aeruginosa ATCC 27853; assay: Antibacterial activity (MIC), microbroth dilution; type: cell-based; conditions: Pseudomonas aeruginosa, ATCC27853, read-out: Antibacterial activity (MIC)
Procedure: (§1) Reference bacterial strains were obtained from the American Type Culture Collection (ATCC). Vancomycin resistant Enterococcus faecium (VRE 734, wastewater isolate from the Venter Laboratory Collection) was isolated on Bile Esculin agar (Oxoid, Australia) containing 6 μg/mL vancomycin and identified using MALDI-TOF mass spectrometry (Bruker, Preston, Victoria, Australia, Australian Center for Antimicrobial Resistance Ecology). The Pseudomonas aeruginosa WT PAO1 and Escherichia coli with deletions of both acrA and acrB genes encoding drug efflux pumps were obtained from the Venter laboratory stock ([Welch et al., 2010]). The protocol for microbial growth was adopted from the European Committee on Antimicrobial Susceptibility Testing (EUCAST) ([European Committee for Antimicrobial Susceptibility Testing, 2016]).
(§2) Non-fastidious bacteria and clinical isolates were maintained in Mueller Hinton (MH) broth (Acumedia, United Kingdom) supplemented with 15% (v/v) glycerol (Chem-Supply, Australia), cultured on Mueller Hinton (MH) agar (Acumedia, United Kingdom) plated and incubated at 37°C. Fastidious bacteria were maintained in Brain Heart Infusion (BHI) broth (Acumedia, United Kingdom) supplemented with 15% (v/v) glycerol at −80°C. The fastidious bacteria were cultured on MH agar plates supplemented with 5% (v/v) lysed horse blood and 3% (v/v) fetal bovine serum and incubated at 30°C in the presence of 5% CO2. Drug susceptibility assays were carried out with the non-fastidious cultures grown in cation-adjusted Mueller Hinton (CaMH) broth (Becton Dickinson, France). Streptococcus pyogenes was grown in CaMH broth supplemented with 5% (v/v) lysed horse blood and 3% (v/v) fetal bovine serum whereas Enterococcus faecium was grown in BHI broth.
(§3) The minimum inhibitory concentrations (MICs) for all six compounds were determined using the microbroth dilution protocol as per EUCAST with an inoculum of approximately […] in an exponential growth phase ([European Committee for Antimicrobial Susceptibility Testing, 2016]). Bacterial suspension, 100 μL/well, was added to 100 μL/well of drug dilutions, then incubated for 18 h at 37°C. Fastidious bacterial suspensions were instead incubated at 30°C in the presence of 5% CO2. Bacterial growth was assessed by measuring the change in A600 nm between time 0 and 18 h (Cytation5® Cell Imaging Multi-Mode Reader, Bio-Tek®). Levofloxacin was used as the positive control. Assays were completed in duplicate in at least three independent experiments.

[2] = system: Pseudomonas aeruginosa WT PAO1; assay: Antibacterial activity (MIC), microbroth dilution; type: cell-based; conditions: Pseudomonas aeruginosa, PAO1, read-out: Antibacterial activity (MIC)
Procedure: as §1, §2, §3

[3] = system: Escherichia coli WT BW 25113; assay: Antibacterial activity (MIC), microbroth dilution; type: cell-based; conditions: Escherichia coli, WTBW25113, read-out: Antibacterial activity (MIC)
Procedure: as §1, §2, §3

[4] = system: Klebsiella pneumoniae ATCC 13883; assay: Antibacterial activity (MIC), microbroth dilution; type: cell-based; conditions: Klebsiella pneumoniae, ATCC13883, read-out: Antibacterial activity (MIC)
Procedure: as §1, §2, §3

[5] = system: Streptococcus pyogenes ATCC 10389; assay: Antibacterial activity (MIC), microbroth dilution; type: cell-based; conditions: Streptococcus pyogenes, ATCC10389, read-out: Antibacterial activity (MIC)
Procedure: as §1, §2, §3

[6] = system: Methicillin resistant Staphylococcus aureus; assay: Antibacterial activity (MIC), microbroth dilution; type: cell-based; conditions: Staphylococcus aureus, ATCC 43300 / MRSA, read-out: Antibacterial activity (MIC)
Procedure: as §1, §2, §3

[7] = system: Klebsiella pneumoniae ATCC 4352; assay: Antibacterial activity (MIC), microbroth dilution; type: cell-based; conditions: Klebsiella pneumoniae, ATCC4352, read-out: Antibacterial activity (MIC)
Procedure: as §1, §2, §3

[8] = system: Klebsiella pneumoniae ATCC 33495; assay: Antibacterial activity (MIC), microbroth dilution; type: cell-based; conditions: Klebsiella pneumoniae, ATCC33495, read-out: Antibacterial activity (MIC)
Procedure: as §1, §2, §3

[9] = system: Enterobacter aerogenes ATCC 13408; assay: Antibacterial activity (MIC), microbroth dilution; type: cell-based; conditions: Klebsiella aerogenes, ATCC13408, read-out: Antibacterial activity (MIC)
Procedure: as §1, §2, §3

[10] = system: Streptococcus pneumoniae (type 3, mucoid strain) ATCC 6303; assay: Antibacterial activity (MIC), microbroth dilution; type: cell-based; conditions: Streptococcus pneumoniae, ATCC6303, read-out: Antibacterial activity (MIC)
Procedure: as §1, §2, §3

In the case of `Cc1nc2ccccc2n1C(=O)/C=C/c1ccc(F)cc1` [Compound 2], the “Time until elongated phenotype is seen” value (A. baumannii ATCC 19606) is listed as ≤ 3 h, the “Effect on FtsZ polymerization, light scattering” value (from here on “Effect on FtsZ polymerization”) (E. coli FtsZ) is listed as “impaired polymerization” and the “Toxicity toward C. elegans (survival)” value (Caenorhabditis elegans) is listed as “do not have in vivo toxicity in this model at 2 × MICs for up to 72 h”. The MIC [1] was > 256 µg/mL, the MIC [2] was 256 µg/mL (≈ 913 µM) and the MIC [3] was > 256 µg/mL. The MIC [4] was > 256 µg/mL, the MIC [5] was > 256 µg/mL and the MIC [6] was > 256 µg/mL. For the same molecule, the MIC [7] was > 256 µg/mL, the MIC [8] was > 256 µg/mL and the MIC [9] was > 256 µg/mL. It also gave an MIC [10] of 256 µg/mL (≈ 913 µM).
In the case of `Cc1nc2ccccc2n1C(=O)/C=C/c1ccccc1` [Compound 1], the “Time until elongated phenotype is seen” value (A. baumannii ATCC 19606) is reported as > 3 h, the “Toxicity toward C. elegans (survival)” value (Caenorhabditis elegans) is reported as “do not have in vivo toxicity in this model at 2 × MICs for up to 72 h” and the MIC [1] is reported as > 256 µg/mL. The MIC [2] was 256 µg/mL (≈ 976 µM), the MIC [3] was > 256 µg/mL and the MIC [4] was > 256 µg/mL. For the same molecule, the MIC [5] was > 256 µg/mL, the MIC [6] was 256 µg/mL (≈ 976 µM) and the MIC [7] was > 256 µg/mL. The MIC [8] was > 256 µg/mL, the MIC [9] was > 256 µg/mL and the MIC [10] was 256 µg/mL (≈ 976 µM).
With `COc1ccc(/C=C/C(=O)n2c(C)nc3ccccc32)cc1OC` [Compound 5] the “Toxicity toward C. elegans (survival)” value (Caenorhabditis elegans) was “significant toxicity (p < 0.05) but only after 72 h treatment”, the MIC [1] was > 256 µg/mL and the MIC [2] was > 256 µg/mL. The MIC [3] was > 256 µg/mL, the MIC [4] was > 256 µg/mL and the MIC [5] was > 256 µg/mL. The MIC [6] was > 256 µg/mL, the MIC [7] was > 256 µg/mL and the MIC [8] was > 256 µg/mL. The MIC [9] was > 256 µg/mL and the MIC [10] was 256 µg/mL (≈ 794 µM).
In the case of `Cc1nc2ccccc2n1C(=O)/C=C/c1ccc(Cl)cc1` [Compound 3], the “Time until elongated phenotype is seen” value (A. baumannii ATCC 19606) is listed as ≤ 3 h, the “Effect on FtsZ polymerization” value (E. coli FtsZ) is listed as “impaired polymerization” and the “Toxicity toward C. elegans (survival)” value (Caenorhabditis elegans) is listed as “do not have in vivo toxicity in this model at 2 × MICs for up to 72 h”. The MIC [1] was > 256 µg/mL, the MIC [2] was > 256 µg/mL and the MIC [3] was > 256 µg/mL. For the same molecule, the MIC [4] was > 256 µg/mL, the MIC [5] was > 256 µg/mL and the MIC [6] was > 256 µg/mL. For the same molecule, the MIC [7] was > 256 µg/mL, the MIC [8] was > 256 µg/mL and the MIC [9] was > 256 µg/mL. It also gave an MIC [10] of 256 µg/mL (≈ 863 µM).
In the case of `Cc1nc2ccccc2n1C(=O)/C=C/c1ccc(Br)cc1` [Compound 4], the “Time until elongated phenotype is seen” value (A. baumannii ATCC 19606) is reported as ≤ 3 h, the MIC [1] is reported as 256 µg/mL (≈ 750 µM) and the MIC [2] is reported as > 256 µg/mL. The MIC [3] was > 256 µg/mL, the MIC [4] was > 256 µg/mL and the MIC [5] was > 256 µg/mL. For the same molecule, the MIC [6] was > 256 µg/mL, the MIC [7] was > 256 µg/mL and the MIC [8] was > 256 µg/mL. The MIC [9] was > 256 µg/mL and the MIC [10] was 256 µg/mL (≈ 750 µM).
In the case of `Cc1nc2ccccc2n1C(=O)/C=C/c1ccc(Cl)cc1Cl` [Compound 6], the “Time until elongated phenotype is seen” value (A. baumannii ATCC 19606) is listed as ≤ 3 h, the “Effect on FtsZ polymerization” value (E. coli FtsZ) is listed as “impaired polymerization” and the “Toxicity toward C. elegans (survival)” value (Caenorhabditis elegans) is listed as “devoid of hemolytic activity and cytotoxicity against mammalian cells in vitro, as well as adverse activity in a Caenorhabditis elegans nematode model”. For the same molecule, the MIC [1] was > 256 µg/mL, the MIC [2] was 256 µg/mL (≈ 773 µM) and the MIC [3] was > 256 µg/mL. The MIC [4] was > 256 µg/mL, the MIC [5] was > 256 µg/mL and the MIC [6] was 64 µg/mL (≈ 193 µM). For the same molecule, the MIC [7] was > 256 µg/mL, the MIC [8] was > 256 µg/mL and the MIC [9] was > 256 µg/mL. The MIC [10] was 256 µg/mL (≈ 773 µM).
